Measured values published in PMC8037310, “Thrombin-Derived Peptides Potentiate the Activity of Gram-Positive-Specific Antibiotics against Gram-Negative Bacteria” (Molecules, 2021).
Several values for one entry are separate records, joined by “and”; a condition that tells them apart may be missing. Identical values can stand only once. Like-named read-outs stand apart in the source and are kept apart here. Square brackets hold non-standard residues; d marks the D form. Peptide text beside a SMILES is read from it.

Experiments:
E. coli BW25113 [1] = test: microbe, parasite or virus in culture; assay type: cell-based, Escherichia coli
Description: (§1) All peptides were screened for antimicrobial activity against E. coli BW25113, E. coli ATCC25922, and E. coli W3110. A select group of the peptides was further tested against E. coli mcr-1, E. coli EQASmcr-1 (EQAS 2016 412016126), E. coli EQASmcr-2 (EQAS 2016 KP37), E. coli EQASmcr-3 (EQAS 2017 2013-SQ352), K. pneumoniae ATCC13883, P. aeruginosa ATCC27853, and A. baumannii ATCC17978. The antimicrobial assay was performed according to CLSI guidelines. Bacteria were plated out directly from their glycerol stocks on blood agar plates, incubated overnight at 37 °C, and then kept in the fridge. The blood agar plates were only used for 2 weeks and then replaced.
(§2) One colony from a blood agar plates was inoculated in Lysogeny Broth (LB) at 37 °C until a 0.5 optical density at 600 nm (OD600) was reached (compared to the sterility control of LB). The bacterial suspension was diluted in fresh LB to 2.0 × 10^6 CFU/mL. The serial dilutions were prepared in polypropylene microtiter plates: a stock of the test compounds was prepared with a 2x final concentration in LB. Moreover, 100 µL of the stock was added to the wells of the top row of which 50 µL was used for the serial dilution. The bottom row of each plate was used as the positive (50 µL of LB) and negative controls (100 µL of LB) (6 wells each). Furthermore, 50 µL of the 2.0 × 10^6 CFU/mL bacterial stock was added to each well except for the negative controls, adding up to a total volume of 100 µL per well. The plates were sealed with a breathable seal and incubated for 20 h at 37 °C and 600 rpm.
(§3) Two 96-well plates were required per compound. A serial dilution of the compound was performed on two plates from row A–G using with LB as medium. Row H was filled with 25 µL medium. On a separate plate a negative control (8 wells, 100 μL medium) was prepared. For all concentrations of antibiotic a specific stock was prepared. 25 µL medium was added to the 0 µg/mL antibiotic columns (plate I, column 1–3). Of each antibiotic stock 25 µL was added to three columns to obtain triplicates for every condition. Both plates contained 50 µL in each well to which 50 µL bacterial stock was added (see the protocol of the MIC assays) and the plates were sealed. After incubation for 20 h at 37 °C while shaking, the breathable seals were removed and the density of the bacterial suspensions measured at 600 nm (OD600) using a Tecan Spark plate reader. The OD600 values were transformed to a 2D gradient with the negative control as minimum and the positive control (wells G1, G2, and G3) as maximum in excel. The FICi was calculated using Equation (1) with a FICi ≤ 0.5 indicating synergy. FICi = (MSCa/MICa) + (MSCb/MICb),(1)
(§4) Calculation of the FICi: MSCa = concentration of the […] in combination with the antibiotic that results in the lowest FICi. MICa = MIC of the antibiotic without synergist (row G). MSCb = concentration of the synergist in combination with the antibiotic that results in the lowest FICi. MICb = MIC of the synergist itself (Column 1–3, plate I).

E. coli BW25113 [2] = assay type: cell-based, Escherichia coli; details: for FICi: BW25113, 20 h; for MSCrif: rifampicin concentration in the combination giving the lowest FICi; for MSCrif / MSCpep: E. coli BW25113; for MICpep: synergist alone, E. coli BW25113, from checkerboard with rifampicin; for MSCpep: synergist concentration in the combination with rifampicin giving the lowest FICi
Description: as §1, §2, §3, §4

[3] = test system: defibrinated sheep blood (red blood cells); test: Hemolysis assay; assay type: cell-based; details: 200 µg/mL compound, 20 h incubation at 37 °C with defibrinated sheep blood, PBS 0.002% Tween20, absorbance 415 nm, relative to 0.1% Triton X-100; n=3 technical replicates
Description: Defibrinated sheep blood (Thermo Fisher Scientific) and a phosphate-buffered saline (PBS) buffer containing 0.002% Tween20 were used in this assay. The red blood cells were washed with buffer followed by centrifugation (400 g for 15 min at 4 °C). The red blood cells were then normalized to obtain a positive control read-out around 2.5 at 415 nm to stay in the linear range with the maximum sensitivity. A serial dilution of the compounds (200–1.56 µg/mL, 75 µL) was prepared in a 96-well plate. Each plate contained a positive control (0.1% Triton X-100 final concentration, 75 µL) and the negative control (buffer, 75 µL). After addition of normalized blood cells (75 µL), the plates were incubated for 20 h at 37 °C at 500 rpm. The plates were centrifuged (800× g for 5 min at room temperature). For the next step flat-bottom polystyrene plates were prepared with 100 µL buffer in each well. Aliquots of 25 µL supernatant from the centrifuged plates were then transferred to their respective wells in the flat-bottom plate. Absorbance values where measured at 415 nm and corrected for background (negative control) and transformed to a percentage hemolysis relative to the positive control.

E. coli BW25113 [4] = test: Checkerboard assay with erythromycin; assay type: cell-based, Escherichia coli; details: for MSCery: erythromycin concentration in the combination with the synergist giving the lowest FICi, E. coli BW25113; for MIC of the peptide (MICpep): synergist alone, from checkerboard with erythromycin; for MIC of the peptide (MICpep) / MSCpeptide, minimum synergistic concentration: E. coli BW25113, LB, 20 h 37 °C; for MSCpeptide, minimum synergistic concentration: synergist concentration in the combination with erythromycin giving the lowest FICi, OD600
Description: as §1, §2, §3, §4

E. coli ATCC25922 = assay type: cell-based, Escherichia coli; details: rifampicin without synergist; E. coli ATCC25922
Description: as §1, §2, §3, §4

E. coli mcr-1 = assay type: cell-based, Escherichia coli; details: rifampicin without synergist; E. coli mcr-1
Description: as §1, §2, §3, §4

A. baumannii ATCC17978 = test: microbe, parasite or virus in culture; assay type: cell-based, Acinetobacter baumannii
Description: as §1, §2, §3, §4

P. aeruginosa ATCC27853 = test: Checkerboard assay with rifampicin; assay type: cell-based, Pseudomonas aeruginosa
Description: as §1, §2, §3, §4

K. pneumoniae ATCC13883 = test: Checkerboard assay with rifampicin; assay type: cell-based, Klebsiella pneumoniae
Description: as §1, §2, §3, §4

SMILES | MIC (E. coli BW25113 [1]; Escherichia coli, BW25113, read-out: MIC of vancomycin (MICvanco)) | MIC of vancomycin (MICvanco) (E. coli BW25113 [1]; antibiotic without synergist, E. coli BW25113) | FICi (E. coli BW25113 [2]) | MSCrif (E. coli BW25113 [2]) | MICpep (E. coli BW25113 [2]) | MSCpep (E. coli BW25113 [2]) | Hemolysis [3] | MSCery (E. coli BW25113 [4]) | MIC of the peptide (MICpep) (E. coli BW25113 [4]) | MSCpeptide, minimum synergistic concentration (E. coli BW25113 [4]) | FICi (E. coli BW25113 [4]; with erythromycin vs E. coli BW25113, synergy defined as FICi ≤ 0.5) | MICrif (E. coli ATCC25922) | MICrif (E. coli mcr-1) | MIC (A. baumannii ATCC17978; Acinetobacter baumannii, ATCC17978, read-out: MIC of rifampicin (MICrif)) | MIC of rifampicin (MICrif) (A. baumannii ATCC17978; rifampicin without synergist, A. baumannii ATCC17978) | MIC (P. aeruginosa ATCC27853; Pseudomonas aeruginosa, ATCC27853, read-out: MIC of rifampicin (MICrif)) | MIC of rifampicin (MICrif) (P. aeruginosa ATCC27853; rifampicin without synergist, P. aeruginosa ATCC27853) | MIC (K. pneumoniae ATCC13883; Klebsiella pneumoniae, ATCC13883, read-out: MIC of rifampicin (MICrif)) | MIC of rifampicin (MICrif) (K. pneumoniae ATCC13883; rifampicin without synergist, K. pneumoniae ATCC13883)
CN[C@H](CC(C)C)C(=O)N[C@H]1C(=O)N[C@@H](CC(N)=O)C(=O)N[C@H]2C(=O)N[C@H]3C(=O)N[C@H](C(=O)N[C@H](C(=O)O)c4cc(O)cc(O)c4-c4cc3ccc4O)[C@H](O)c3ccc(c(Cl)c3)Oc3cc2cc(c3O[C@@H]2O[C@H](CO)[C@@H](O)[C@H](O)[C@H]2O[C@H]2C[C@](C)(N)[C@H](O)[C@H](C)O2)Oc2ccc(cc2Cl)[C@H]1O [vancomycin, reference compound] | > 200 µg/mL | > 200 µg/mL | – | – | – | – | – | – | – | – | – | – | – | – | – | – | – | – | –
CC[C@H](C)[C@H](N)C(=O)N[C@H](C(=O)N[C@@H](CCCCN)C(=O)N[C@@H](CCC(N)=O)C(=O)N[C@H](C(=O)N[C@@H](Cc1c[nH]c2ccccc12)C(=O)N[C@@H](CCCCN)C(=O)N[C@@H](CCCCN)C(=O)N[C@@H](CC(C)C)C(=O)N[C@@H](CCCNC(=N)N)C(=O)N[C@@H](Cc1ccccc1)C(=O)N[C@H](C(N)=O)C(C)C)[C@@H](C)CC)C(C)C [peptide 21] (H-IVKQIWKKLRFV-NH2) | – | – | 0.3750 | 2 µg/mL | > 200 µg/mL | 50 µg/mL | 2.2% and 2% | 25 µg/mL | > 200 µg/mL | 50 µg/mL | 0.2500 | – | – | – | – | – | – | – | –
CO[C@H]1/C=C/O[C@@]2(C)Oc3c(C)c(O)c4c(O)c(c(/C=N/N5CCN(C)CC5)c(O)c4c3C2=O)NC(=O)/C(C)=C\C=C\[C@H](C)[C@H](O)[C@@H](C)[C@@H](O)[C@@H](C)[C@H](OC(C)=O)[C@@H]1C [rifampicin, reference compound] | – | – | – | – | – | – | – | – | – | – | – | 4 µg/mL | 12 µg/mL | 2 µg/mL | 2 µg/mL | 16 µg/mL | 16 µg/mL | 32 µg/mL | 32 µg/mL
CC[C@H](C)[C@H](NC(=O)[C@@H](NC(=O)[C@H](CCCCN)NC(=O)[C@H](CCC(N)=O)NC(=O)[C@@H](NC(=O)[C@H](Cc1c[nH]c2ccccc12)NC(=O)[C@H](CCCCN)NC(=O)[C@H](CCCCN)NC(=O)[C@H](CC(C)C)NC(=O)[C@H](CCCNC(=N)N)NC(=O)[C@H](Cc1ccccc1)NC(=O)[C@@H](N)C(C)C)[C@@H](C)CC)C(C)C)C(=O)O [peptide 1] (H-VFRLKKWIQKVI-OH) | – | – | – | 0.25 µg/mL | 200 µg/mL | 12.5 µg/mL | 0.1% and 0% | 12.5 µg/mL | 200 µg/mL | 25 µg/mL | – | – | – | – | – | – | – | – | –
CC[C@H](C)[C@H](NC(=O)[C@@H](NC(=O)[C@H](CCCCN)NC(=O)[C@H](C)NC(=O)[C@@H](NC(=O)[C@H](Cc1c[nH]c2ccccc12)NC(=O)[C@H](CCCCN)NC(=O)[C@H](CCCCN)NC(=O)[C@H](CC(C)C)NC(=O)[C@H](CCCNC(=N)N)NC(=O)[C@H](Cc1ccccc1)NC(=O)[C@@H](N)C(C)C)[C@@H](C)CC)C(C)C)C(N)=O [compound 16] (H-VFRLKKWIAKVI-NH2) | – | – | 0.2656 | – | 25 µg/mL | 6.25 µg/mL | 3.5% and 4% | 12.5 µg/mL | 25 µg/mL | 3.125 µg/mL | – | – | – | – | – | – | – | – | –
CC[C@@H](C)[C@@H](N)C(=O)N[C@@H](C(=O)N[C@H](CCCCN)C(=O)N[C@H](CCC(N)=O)C(=O)N[C@@H](C(=O)N[C@H](Cc1c[nH]c2ccccc12)C(=O)N[C@H](CCCCN)C(=O)N[C@H](CCCCN)C(=O)N[C@H](CC(C)C)C(=O)N[C@H](CCCNC(=N)N)C(=O)N[C@H](Cc1ccccc1)C(=O)N[C@@H](C(N)=O)C(C)C)[C@H](C)CC)C(C)C [peptide 22] (H-[dI][dV][dK][dQ][dI][dW][dK][dK][dL][dR][dF][dV]-NH2) | – | – | 0.1406 | 0.25 µg/mL | 50 µg/mL | 6.25 µg/mL | 3.2% and 3% | 6.25 µg/mL | 100 µg/mL | 6.25 µg/mL | – | – | – | – | – | – | – | – | –
CC[C@H](C)[C@H](NC(=O)[C@@H](NC(=O)[C@H](CCCCN)NC(=O)[C@H](CCC(N)=O)NC(=O)[C@@H](NC(=O)[C@H](Cc1c[nH]c2ccccc12)NC(=O)[C@H](CCCCN)NC(=O)[C@H](CCCCN)NC(=O)[C@H](CC(C)C)NC(=O)[C@H](CCCNC(=N)N)NC(=O)[C@H](Cc1ccccc1)NC(=O)[C@@H](NC(C)=O)C(C)C)[C@@H](C)CC)C(C)C)C(=O)O [peptide 5] (Ac-VFRLKKWIQKVI-OH) | – | – | – | 0.25 µg/mL | > 200 µg/mL | 50 µg/mL | 0.2% and 0% | 6.25 µg/mL | > 200 µg/mL | 50 µg/mL | – | – | – | – | – | – | – | – | –
